# Laboratory results as given in US20130040882A1, “USE OF FIBROBLAST GROWTH FACTOR FRAGMENTS” (NOVARTIS AG, priority 2003, published 2013).
# Test system: uterine gene expression
# Assay: Gene expression profiling (HGU133A) in the uterus of ovariectomized monkeys treated with estradiol, tamoxifen or raloxifene
# Type: in vivo, cynomolgus monkeys (Macaca fascicularis)
# Details: uterus; OVX monkeys
smiles,measurement,value
C#C[C@]1(O)CC[C@H]2[C@@H]3CCc4cc(O)ccc4[C@H]3CC[C@@]21C [EE],"Fold change relative to OVX: ATPase, H+ transporting, lysosomal 38 kda, V0 subunit d isoform 1",1.9 fold
same,"Fold change relative to OVX: ATPase, Na+/K+ transporting, beta 3 polypeptide",2.2 fold
same,Fold change relative to OVX: Biglycan,1.9 fold
same,Fold change relative to OVX: CDC28 protein kinase regulatory subunit 2,3.8 fold
same,"Fold change relative to OVX: Cadherin 11, type 2, OB-cadherin (osteoblast)",3.4 fold
same,"Fold change relative to OVX: Calcium channel, voltage-dependent, beta 2 subunit",0.6 fold
same,"Fold change relative to OVX: Catenin (cadherin-associated protein), alpha-like 1",0.5 fold
same,Fold change relative to OVX: Chitinase 3-like 1 (cartilage glycoprotein-39),3.9 fold
same,Fold change relative to OVX: Chloride intracellular channel 4,1.7 fold
same,Fold change relative to OVX: Chondroitin sulfate proteoglycan 2 (versican),3.6 fold
same,"Fold change relative to OVX: Collagen, type I, alpha 1",6.6 fold
same,"Fold change relative to OVX: Collagen, type IV, alpha 2",3.3 fold
same,"Fold change relative to OVX: Collagen, type V, alpha 1",4.0 fold
same,"Fold change relative to OVX: Collagen, type VI, alpha 3",3.7 fold
same,"Fold change relative to OVX: Collagen, type VIII, alpha 2",2.1 fold
same,Fold change relative to OVX: Cyclin D1 (PRAD1: parathyroid adenomatosis 1),2.4 fold
same,"Fold change relative to OVX: Cysteine-rich, angiogenic inducer, 61",3.5 fold
same,Fold change relative to OVX: Cytochrome c oxidase subunit via polypeptide 1,1.5 fold
same,Fold change relative to OVX: Cytochrome c oxidase subunit viia polypeptide 2 (liver),1.8 fold
same,Fold change relative to OVX: Dermatopontin,1.9 fold
same,Fold change relative to OVX: Dishevelled associated activator of morphogenesis 1,3.1 fold
same,Fold change relative to OVX: Fibroblast growth factor 2 (basic),2.1 fold
same,Fold change relative to OVX: Fibulin 1,1.6 fold
same,Fold change relative to OVX: Four and a half LIM domains 2,3.0 fold
same,Fold change relative to OVX: G1 to S phase transition 1,1.6 fold
same,Fold change relative to OVX: Growth associated protein 43,2.0 fold
same,"Fold change relative to OVX: H2A histone family, member Y",1.4 fold
same,Fold change relative to OVX: Heparan sulfate proteoglycan 2 (perlecan),3.5 fold
same,Fold change relative to OVX: Histone H2A.F/Z variant,1.4 fold
same,"Fold change relative to OVX: Insulin-like growth factor binding protein 2, 36 kda",7.1 fold
same,Fold change relative to OVX: Insulin-like growth factor binding protein 5,5.2 fold
same,"Fold change relative to OVX: Integrin, beta 5",1.7 fold
same,"Fold change relative to OVX: Intercrine-alpha, mrna sequence",1.5 fold
same,Fold change relative to OVX: LDL receptor adaptor protein,0.6 fold
same,Fold change relative to OVX: LIM and senescent cell antigen-like domains 1,3.7 fold
same,"Fold change relative to OVX: Laminin, beta 1",1.4 fold
same,Fold change relative to OVX: Latent transforming growth factor beta binding protein 1,3.6 fold
same,Fold change relative to OVX: Matrix metalloproteinase 19,6.3 fold
same,Fold change relative to OVX: Mitogen-activated protein kinase kinase kinase kinase 4,0.6 fold
same,Fold change relative to OVX: Nidogen (enactin),3.6 fold
same,"Fold change relative to OVX: Osteoglycin (osteoinductive factor, mimecan)",2.2 fold
same,Fold change relative to OVX: Peroxiredoxin 1,1.9 fold
same,Fold change relative to OVX: Phosphatase and tensin homolog (mutated in multiple advanced cancers 1),1.8 fold
same,Fold change relative to OVX: Phospholipid transfer protein,2.0 fold
same,Fold change relative to OVX: Pituitary tumour-transforming 1 interacting protein,1.8 fold
same,Fold change relative to OVX: Procollagen C-endopeptidase enhancer,3.2 fold
same,"Fold change relative to OVX: Procollagen-proline, 2-oxoglutarate 4-dioxygenase (proline 4-hydroxylase), alpha polypeptide II",2.6 fold
same,Fold change relative to OVX: Progesterone receptor,9.7 fold
same,Fold change relative to OVX: Protein tyrosine kinase 9,2.1 fold
same,"Fold change relative to OVX: SET domain, bifurcated 1",3.0 fold
same,"Fold change relative to OVX: SPARC-like 1 (mast9, hevin)",2.4 fold
same,Fold change relative to OVX: Secreted frizzled-related protein 1,7.1 fold
same,Fold change relative to OVX: Secreted frizzled-related protein 4,4.2 fold
same,"Fold change relative to OVX: Secreted protein, acidic, cysteine-rich (osteonectin)",2.9 fold
same,"Fold change relative to OVX: Serine (or cysteine) proteinase inhibitor, clade H (heat shock protein 47), member 1, (collagen binding protein 1)",3.3 fold
same,"Fold change relative to OVX: Solute carrier family 22 (organic cation transporter), member 1-like",1.9 fold
same,"Fold change relative to OVX: Solute carrier family 25 (mitochondrial carrier; adenine nucleotide translocator), member 5",2.5 fold
same,Fold change relative to OVX: Stem cell growth factor; lymphocyte secreted C-type lectin,2.2 fold
same,Fold change relative to OVX: Tenascin C (hexabrachion),1.2 fold
same,Fold change relative to OVX: Testis Enhanced Gene Transcript (Bax Inhibitor 1),1.8 fold
same,Fold change relative to OVX: Thioredoxin interacting protein,0.3 fold
same,"Fold change relative to OVX: Transforming growth factor, beta-induced, 68 kda",1.7 fold
same,"Fold change relative to OVX: Ubiquinol-cytochrome c reductase, Rieske iron-sulfur polypeptide 1",1.4 fold
same,"Fold change relative to OVX: Wingless-type MMTV integration site family, member 2B",2.6 fold
same,"Fold change relative to OVX: Wingless-type MMTV integration site family, member 16",1.1 fold
same,"Fold change relative to SHAM control: ATPase, H+ transporting, lysosomal 38 kda, V0 subunit d isoform 1",1.6 fold
same,"Fold change relative to SHAM control: ATPase, Na+/K+ transporting, beta 3 polypeptide",1.2 fold
same,Fold change relative to SHAM control: Biglycan,0.7 fold
same,Fold change relative to SHAM control: CDC28 protein kinase regulatory subunit 2,2.3 fold
same,"Fold change relative to SHAM control: Cadherin 11, type 2, OB-cadherin (osteoblast)",2.1 fold
same,"Fold change relative to SHAM control: Calcium channel, voltage-dependent, beta 2 subunit",1.1 fold
same,"Fold change relative to SHAM control: Catenin (cadherin-associated protein), alpha-like 1",1.0 fold
same,Fold change relative to SHAM control: Chitinase 3-like 1 (cartilage glycoprotein-39),2.8 fold
same,Fold change relative to SHAM control: Chloride intracellular channel 4,0.9 fold
same,Fold change relative to SHAM control: Chondroitin sulfate proteoglycan 2 (versican),2.6 fold
same,"Fold change relative to SHAM control: Collagen, type I, alpha 1",2.4 fold
same,"Fold change relative to SHAM control: Collagen, type IV, alpha 2",1.9 fold
same,"Fold change relative to SHAM control: Collagen, type V, alpha 1",1.9 fold
same,"Fold change relative to SHAM control: Collagen, type VI, alpha 3",2.1 fold
same,"Fold change relative to SHAM control: Collagen, type VIII, alpha 2",1.2 fold
same,Fold change relative to SHAM control: Cyclin D1 (PRAD1: parathyroid adenomatosis 1),2.7 fold
same,"Fold change relative to SHAM control: Cysteine-rich, angiogenic inducer, 61",2.0 fold
same,Fold change relative to SHAM control: Cytochrome c oxidase subunit via polypeptide 1,1.3 fold
same,Fold change relative to SHAM control: Cytochrome c oxidase subunit viia polypeptide 2 (liver),1.8 fold
same,Fold change relative to SHAM control: Dermatopontin,1.1 fold
same,Fold change relative to SHAM control: Dishevelled associated activator of morphogenesis 1,2.0 fold
same,Fold change relative to SHAM control: Fibroblast growth factor 2 (basic),1.1 fold
same,Fold change relative to SHAM control: Fibulin 1,0.9 fold
same,Fold change relative to SHAM control: Four and a half LIM domains 2,1.9 fold
same,Fold change relative to SHAM control: G1 to S phase transition 1,1.3 fold
same,Fold change relative to SHAM control: Growth associated protein 43,0.8 fold
same,"Fold change relative to SHAM control: H2A histone family, member Y",1.2 fold
same,Fold change relative to SHAM control: Heparan sulfate proteoglycan 2 (perlecan),1.6 fold
same,Fold change relative to SHAM control: Histone H2A.F/Z variant,1.4 fold
